Assay results published in PMC10046369, “Low-Affinity/High-Selectivity Dopamine Transport Inhibition Sufficient to Rescue Cognitive Functions in the Aging Rat” (Biomolecules, 2023).

Tests used:
Assay in all cases: cell-based
Parameters in all cases: Eurofins Cerep functional GPCR screen, antagonist mode, inhibition of control agonist response
Conditions in all cases: read-out: % Inhibition of Control Agonist Response, Mean
CCK1 (CCKA) = molecular target: T1, CCK1 (CCKA) (Homo sapiens, UniProt P32238)
T1 construct: gene CCKAR

D2S = molecular target: T2, D2S (Homo sapiens, UniProt P14416)
T2 construct: gene DRD2; D2S short isoform

alpha 1D = molecular target: T3, alpha 1D (Homo sapiens, UniProt P25100)
T3 construct: gene ADRA1D

GnRH = molecular target: T4, GnRH (Homo sapiens, UniProt P30968)
T4 construct: gene GNRHR

α1B = molecular target: T5, α1B (Homo sapiens, UniProt P35368)
T5 construct: gene ADRA1B

KiSS1 / GPR54 = molecular target: T6, KiSS1 / GPR54 (Homo sapiens, UniProt Q969F8)
T6 construct: gene KISS1R

FPR1 = FPR1 (Homo sapiens, UniProt P21462)
APJ (apelin) = molecular target: T7, APJ (apelin) (Homo sapiens, UniProt P35414)
T7 construct: gene APLNR

secretin = molecular target: T8, secretin (Homo sapiens, UniProt P47872)
T8 construct: gene SCTR

H2 = molecular target: T9, H2 (Homo sapiens, UniProt P25021)
T9 construct: gene HRH2

D3 = molecular target: T10, D3 (Homo sapiens, UniProt P35462)
T10 construct: gene DRD3

A2B = molecular target: T11, A2B (Homo sapiens, UniProt P29275)
T11 construct: gene ADORA2B

H1 = molecular target: T12, H1 (Homo sapiens, UniProt P35367)
T12 construct: gene HRH1

GABAB1b beta = molecular target: T13, GABAB1b beta (Homo sapiens, UniProt Q9UBS5)
T13 construct: gene GABBR1; GABAB1b isoform

BB2 = molecular target: T14, BB2 (Homo sapiens, UniProt P30550)
T14 construct: gene GRPR

CB1 = molecular target: T15, CB1 (Homo sapiens, UniProt P21554)
T15 construct: gene CNR1

α2C = molecular target: T16, α2C (Homo sapiens, UniProt P18825)
T16 construct: gene ADRA2C

D5 = molecular target: T17, D5 (Homo sapiens, UniProt P21918)
T17 construct: gene DRD5

TSH = molecular target: T18, TSH (Homo sapiens, UniProt P16473)
T18 construct: gene TSHR

B1 = molecular target: T19, B1 (Homo sapiens, UniProt P46663)
T19 construct: gene BDKRB1

CXCR6 = CXCR6 (Homo sapiens, UniProt O00574)
CCR4 = CCR4 (Homo sapiens, UniProt P51679)
CCR1 = CCR1 (Homo sapiens, UniProt P32246)
α2A = molecular target: T20, α2A (Homo sapiens, UniProt P08913)
T20 construct: gene ADRA2A

ETA = molecular target: T21, ETA (Homo sapiens, UniProt P25101)
T21 construct: gene EDNRA

GPR109A = molecular target: T22, GPR109A (Homo sapiens, UniProt Q8TDS4)
T22 construct: gene HCAR2
T22 sequence (Q8TDS4 whole entry): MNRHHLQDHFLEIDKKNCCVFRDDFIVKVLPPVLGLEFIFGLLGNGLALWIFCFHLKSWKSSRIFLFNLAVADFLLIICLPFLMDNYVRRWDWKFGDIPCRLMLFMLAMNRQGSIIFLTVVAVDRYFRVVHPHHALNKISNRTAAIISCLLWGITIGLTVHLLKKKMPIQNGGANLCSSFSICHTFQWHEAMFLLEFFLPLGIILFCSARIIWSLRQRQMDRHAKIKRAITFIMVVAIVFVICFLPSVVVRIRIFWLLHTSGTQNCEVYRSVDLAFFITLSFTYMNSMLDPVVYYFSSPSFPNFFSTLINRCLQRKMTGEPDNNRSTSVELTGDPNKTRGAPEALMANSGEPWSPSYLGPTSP

Chain of CCR4 (P51679 whole entry): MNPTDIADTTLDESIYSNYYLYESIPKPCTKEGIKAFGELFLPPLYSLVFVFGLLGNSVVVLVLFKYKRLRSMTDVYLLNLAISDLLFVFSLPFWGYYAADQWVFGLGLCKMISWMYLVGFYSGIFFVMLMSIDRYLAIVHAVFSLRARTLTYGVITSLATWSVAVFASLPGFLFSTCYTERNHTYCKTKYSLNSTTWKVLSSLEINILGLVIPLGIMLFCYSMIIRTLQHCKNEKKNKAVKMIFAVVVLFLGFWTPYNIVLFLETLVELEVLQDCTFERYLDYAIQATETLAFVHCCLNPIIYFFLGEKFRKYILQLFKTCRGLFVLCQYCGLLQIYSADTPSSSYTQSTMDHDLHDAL
T17 sequence (P21918 whole entry): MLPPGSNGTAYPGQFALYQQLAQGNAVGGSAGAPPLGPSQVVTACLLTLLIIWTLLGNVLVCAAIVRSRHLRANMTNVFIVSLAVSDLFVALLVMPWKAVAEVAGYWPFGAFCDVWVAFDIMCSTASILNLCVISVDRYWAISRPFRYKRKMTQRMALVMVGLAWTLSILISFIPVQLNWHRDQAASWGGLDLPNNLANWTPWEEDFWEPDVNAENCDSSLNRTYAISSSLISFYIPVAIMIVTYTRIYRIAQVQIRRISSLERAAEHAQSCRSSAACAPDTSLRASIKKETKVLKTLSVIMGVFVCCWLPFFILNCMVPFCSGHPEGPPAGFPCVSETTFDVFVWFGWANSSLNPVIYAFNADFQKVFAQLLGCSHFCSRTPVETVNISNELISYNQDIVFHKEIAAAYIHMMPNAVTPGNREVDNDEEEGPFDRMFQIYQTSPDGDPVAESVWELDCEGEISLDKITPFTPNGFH
T11 sequence (P29275 whole entry): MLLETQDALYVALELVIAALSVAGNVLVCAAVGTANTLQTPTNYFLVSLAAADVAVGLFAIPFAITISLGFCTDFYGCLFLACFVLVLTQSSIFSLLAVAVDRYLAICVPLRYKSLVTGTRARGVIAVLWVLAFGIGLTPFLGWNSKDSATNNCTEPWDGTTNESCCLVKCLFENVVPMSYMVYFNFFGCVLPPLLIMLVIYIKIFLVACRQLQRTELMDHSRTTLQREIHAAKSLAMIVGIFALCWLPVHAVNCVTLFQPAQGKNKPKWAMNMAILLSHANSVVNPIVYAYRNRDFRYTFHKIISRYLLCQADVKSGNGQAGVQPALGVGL
Chain of CXCR6 (O00574 whole entry): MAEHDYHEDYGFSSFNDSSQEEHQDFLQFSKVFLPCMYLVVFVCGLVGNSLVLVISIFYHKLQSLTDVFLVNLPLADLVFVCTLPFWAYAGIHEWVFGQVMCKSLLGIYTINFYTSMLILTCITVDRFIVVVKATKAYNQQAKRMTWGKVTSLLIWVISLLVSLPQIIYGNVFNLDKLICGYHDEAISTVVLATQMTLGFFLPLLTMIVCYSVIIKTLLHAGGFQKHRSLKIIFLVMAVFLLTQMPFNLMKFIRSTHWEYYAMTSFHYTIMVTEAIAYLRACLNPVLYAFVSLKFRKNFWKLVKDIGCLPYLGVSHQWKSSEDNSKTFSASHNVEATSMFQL
T15 sequence (P21554 whole entry): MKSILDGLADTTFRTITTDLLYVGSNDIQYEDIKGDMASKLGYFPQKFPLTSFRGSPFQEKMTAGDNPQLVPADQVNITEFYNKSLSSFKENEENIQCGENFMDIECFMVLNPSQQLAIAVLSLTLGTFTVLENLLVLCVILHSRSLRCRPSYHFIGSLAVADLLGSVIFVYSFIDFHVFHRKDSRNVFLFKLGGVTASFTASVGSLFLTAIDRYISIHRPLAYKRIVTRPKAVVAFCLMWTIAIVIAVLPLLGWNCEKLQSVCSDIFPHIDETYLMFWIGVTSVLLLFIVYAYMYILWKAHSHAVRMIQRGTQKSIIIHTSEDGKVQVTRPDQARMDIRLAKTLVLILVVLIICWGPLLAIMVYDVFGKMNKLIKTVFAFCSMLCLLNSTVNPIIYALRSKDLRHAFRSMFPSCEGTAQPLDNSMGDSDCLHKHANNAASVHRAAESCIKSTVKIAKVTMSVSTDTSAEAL
T19 sequence (P46663 whole entry): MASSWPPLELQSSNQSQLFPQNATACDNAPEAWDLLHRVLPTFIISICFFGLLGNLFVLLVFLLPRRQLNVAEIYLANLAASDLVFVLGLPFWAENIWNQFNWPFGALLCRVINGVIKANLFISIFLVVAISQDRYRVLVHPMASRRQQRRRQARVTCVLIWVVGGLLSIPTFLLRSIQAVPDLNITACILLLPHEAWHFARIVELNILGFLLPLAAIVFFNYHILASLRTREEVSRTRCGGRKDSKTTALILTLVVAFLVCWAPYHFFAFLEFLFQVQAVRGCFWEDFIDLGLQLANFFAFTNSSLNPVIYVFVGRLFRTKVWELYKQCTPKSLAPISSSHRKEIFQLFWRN
T10 sequence (P35462 whole entry): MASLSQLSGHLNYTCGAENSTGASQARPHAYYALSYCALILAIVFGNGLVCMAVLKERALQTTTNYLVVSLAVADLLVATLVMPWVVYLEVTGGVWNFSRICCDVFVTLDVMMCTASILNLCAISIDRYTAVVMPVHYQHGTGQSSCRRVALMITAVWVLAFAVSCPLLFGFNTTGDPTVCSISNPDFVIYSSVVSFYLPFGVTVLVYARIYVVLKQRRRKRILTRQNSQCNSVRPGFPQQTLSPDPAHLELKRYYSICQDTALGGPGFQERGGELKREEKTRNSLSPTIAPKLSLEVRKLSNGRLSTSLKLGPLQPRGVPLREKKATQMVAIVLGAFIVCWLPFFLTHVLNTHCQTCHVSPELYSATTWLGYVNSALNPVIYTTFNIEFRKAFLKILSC
T20 sequence (P08913 whole entry): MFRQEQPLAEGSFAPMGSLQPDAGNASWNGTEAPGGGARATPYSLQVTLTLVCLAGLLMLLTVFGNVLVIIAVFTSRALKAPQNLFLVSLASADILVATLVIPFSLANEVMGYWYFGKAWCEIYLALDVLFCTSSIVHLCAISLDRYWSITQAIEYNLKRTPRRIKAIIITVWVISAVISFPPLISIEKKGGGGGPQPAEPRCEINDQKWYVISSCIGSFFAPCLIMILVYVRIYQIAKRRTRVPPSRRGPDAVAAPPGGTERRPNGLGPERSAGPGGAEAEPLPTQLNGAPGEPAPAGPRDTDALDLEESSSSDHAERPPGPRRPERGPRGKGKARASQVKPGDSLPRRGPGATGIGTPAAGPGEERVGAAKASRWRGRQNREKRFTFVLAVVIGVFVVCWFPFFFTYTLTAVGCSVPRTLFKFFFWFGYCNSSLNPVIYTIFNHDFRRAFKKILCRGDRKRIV
T8 sequence (P47872 whole entry): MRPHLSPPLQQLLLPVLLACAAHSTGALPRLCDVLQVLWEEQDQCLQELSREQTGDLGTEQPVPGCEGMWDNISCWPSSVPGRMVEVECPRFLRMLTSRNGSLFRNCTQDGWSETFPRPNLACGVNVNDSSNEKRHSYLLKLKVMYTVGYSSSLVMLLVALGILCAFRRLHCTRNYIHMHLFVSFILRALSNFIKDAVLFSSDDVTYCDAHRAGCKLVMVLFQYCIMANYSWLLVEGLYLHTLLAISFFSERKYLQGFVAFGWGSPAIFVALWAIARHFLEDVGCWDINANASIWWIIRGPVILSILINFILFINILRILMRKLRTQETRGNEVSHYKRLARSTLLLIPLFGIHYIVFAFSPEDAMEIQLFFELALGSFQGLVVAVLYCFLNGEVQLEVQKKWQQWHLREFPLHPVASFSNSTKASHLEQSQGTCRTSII
Chain of CCR1 (P32246 whole entry): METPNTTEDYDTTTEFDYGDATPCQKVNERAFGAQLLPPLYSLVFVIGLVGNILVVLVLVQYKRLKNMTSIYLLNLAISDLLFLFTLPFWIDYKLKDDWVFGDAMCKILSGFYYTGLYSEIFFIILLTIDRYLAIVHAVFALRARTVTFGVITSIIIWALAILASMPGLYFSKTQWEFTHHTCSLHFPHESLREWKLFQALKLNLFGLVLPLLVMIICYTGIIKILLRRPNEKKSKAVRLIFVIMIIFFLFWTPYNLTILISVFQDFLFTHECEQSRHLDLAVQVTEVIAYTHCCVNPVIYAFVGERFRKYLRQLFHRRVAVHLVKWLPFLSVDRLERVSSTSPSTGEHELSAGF
T21 sequence (P25101 whole entry): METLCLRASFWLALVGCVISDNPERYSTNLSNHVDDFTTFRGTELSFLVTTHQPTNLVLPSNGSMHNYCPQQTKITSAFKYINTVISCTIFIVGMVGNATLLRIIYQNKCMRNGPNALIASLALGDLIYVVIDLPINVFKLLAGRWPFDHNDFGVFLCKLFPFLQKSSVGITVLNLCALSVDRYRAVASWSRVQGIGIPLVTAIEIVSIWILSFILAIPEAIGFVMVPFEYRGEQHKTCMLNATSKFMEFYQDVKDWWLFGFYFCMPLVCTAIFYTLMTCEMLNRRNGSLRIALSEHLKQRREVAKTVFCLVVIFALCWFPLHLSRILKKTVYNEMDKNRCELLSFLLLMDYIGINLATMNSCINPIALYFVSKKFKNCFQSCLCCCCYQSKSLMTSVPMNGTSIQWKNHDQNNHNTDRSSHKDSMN

[O-][S@@+](Cc1cncs1)C(c1ccccc1)c1ccccc1 [S-CE-123, (S)-5-((Benzhydrylsulfinyl)Methyl)Thiazole]
inhibition at 2.8 µM (CCK1 (CCKA)): 18.2% | inhibition at 2.8 µM (D2S): 18.1% | inhibition at 2.8 µM (alpha 1D): -2.4% | inhibition at 2.8 µM (GnRH): 3.9% | inhibition at 2.8 µM (α1B): -15.1% | inhibition at 2.8 µM (KiSS1 / GPR54): -2.8% | inhibition at 2.8 µM (FPR1): 1.6% | inhibition at 2.8 µM (APJ (apelin)): 6.2% | inhibition at 2.8 µM (secretin): 17.6% | inhibition at 2.8 µM (H2): -2.4% | inhibition at 2.8 µM (D3): -1.9% | inhibition at 2.8 µM (A2B): -11.8% | inhibition at 2.8 µM (H1): -1.9% | inhibition at 2.8 µM (GABAB1b beta): -10.6% | inhibition at 2.8 µM (BB2): -23.2% | inhibition at 2.8 µM (CB1): -2.1% | inhibition at 2.8 µM (α2C): 0.3% | inhibition at 2.8 µM (D5): -10.8% | inhibition at 2.8 µM (TSH): -6.1% | inhibition at 2.8 µM (B1): -10.4% | inhibition at 2.8 µM (CXCR6): -7.6% | inhibition at 2.8 µM (CCR4): -5.8% | inhibition at 2.8 µM (CCR1): -1.5% | inhibition at 2.8 µM (α2A): -8.4% | inhibition at 2.8 µM (ETA): -0.5% | inhibition at 2.8 µM (GPR109A): -11.6%
